Assay results from ChEMBL document CHEMBL4507297, “Data for DCP probe PF-04457845” (2021).

Legend:
[1] = biological target: NUAK family SNF1-like kinase 1 (Homo sapiens) (UniProt O60285); conditions: Compound concentration 1000.0 nM
[2] = biological target: Serine/threonine-protein kinase DCLK2 (Homo sapiens) (UniProt Q8N568); conditions: Compound concentration 1000.0 nM
[3] = biological target: Activin receptor type-1B (Homo sapiens) (UniProt P36896); conditions: Compound concentration 1000.0 nM
Sequence of Activin receptor type-1B (Homo sapiens) (P36896 whole entry): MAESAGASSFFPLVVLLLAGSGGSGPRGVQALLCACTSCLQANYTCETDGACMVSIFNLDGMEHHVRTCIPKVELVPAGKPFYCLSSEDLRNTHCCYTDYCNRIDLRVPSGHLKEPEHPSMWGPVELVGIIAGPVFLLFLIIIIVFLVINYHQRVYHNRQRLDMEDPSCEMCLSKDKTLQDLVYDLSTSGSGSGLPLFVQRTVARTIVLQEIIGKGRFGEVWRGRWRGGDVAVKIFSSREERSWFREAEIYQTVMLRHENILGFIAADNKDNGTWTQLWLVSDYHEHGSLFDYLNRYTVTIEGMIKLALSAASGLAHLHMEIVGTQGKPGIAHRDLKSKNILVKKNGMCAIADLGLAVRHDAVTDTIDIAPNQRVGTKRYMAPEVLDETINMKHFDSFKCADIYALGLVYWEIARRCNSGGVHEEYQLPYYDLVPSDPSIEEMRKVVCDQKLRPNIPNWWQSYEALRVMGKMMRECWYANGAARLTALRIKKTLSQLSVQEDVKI

[4] = tested on: Receptor-type tyrosine-protein kinase FLT3 (Homo sapiens), P36888 [UNDEFINED MUTATION]; conditions: Compound concentration 1000.0 nM
[5] = biological target: Bone morphogenetic protein receptor type-2 (Homo sapiens) (UniProt Q13873); conditions: Compound concentration 1000.0 nM
[6] = biological target: Tyrosine-protein kinase ITK/TSK (Homo sapiens) (UniProt Q08881); conditions: Compound concentration 1000.0 nM
[7] = biological target: Serine/threonine-protein kinase Chk1 (Homo sapiens) (UniProt O14757); conditions: Compound concentration 1000.0 nM
[8] = tested on: Receptor-type tyrosine-protein kinase FLT3 (Homo sapiens), P36888 [N841I]; conditions: Compound concentration 1000.0 nM
[9] = biological target: Mitogen-activated protein kinase kinase kinase 6 (Homo sapiens) (UniProt O95382); conditions: Compound concentration 1000.0 nM
[10] = biological target: Proto-oncogene tyrosine-protein kinase receptor Ret (Homo sapiens) (UniProt P07949); conditions: Compound concentration 1000.0 nM
[11] = biological target: Ephrin type-A receptor 3 (Homo sapiens) (UniProt P29320); conditions: Compound concentration 1000.0 nM
[12] = tested on: Tyrosine-protein kinase ABL1 (Homo sapiens), P00519 [F317L]; conditions: Compound concentration 1000.0 nM
[13] = biological target: Serine/threonine-protein kinase 4 (Homo sapiens) (UniProt Q13043); conditions: Compound concentration 1000.0 nM
[14] = biological target: Serine/threonine-protein kinase D2 (Homo sapiens) (UniProt Q9BZL6); conditions: Compound concentration 1000.0 nM
[15] = biological target: Calcium/calmodulin-dependent protein kinase type 1G (Homo sapiens) (UniProt Q96NX5); conditions: Compound concentration 1000.0 nM
Sequence of Calcium/calmodulin-dependent protein kinase type 1G (Homo sapiens) (Q96NX5 whole entry): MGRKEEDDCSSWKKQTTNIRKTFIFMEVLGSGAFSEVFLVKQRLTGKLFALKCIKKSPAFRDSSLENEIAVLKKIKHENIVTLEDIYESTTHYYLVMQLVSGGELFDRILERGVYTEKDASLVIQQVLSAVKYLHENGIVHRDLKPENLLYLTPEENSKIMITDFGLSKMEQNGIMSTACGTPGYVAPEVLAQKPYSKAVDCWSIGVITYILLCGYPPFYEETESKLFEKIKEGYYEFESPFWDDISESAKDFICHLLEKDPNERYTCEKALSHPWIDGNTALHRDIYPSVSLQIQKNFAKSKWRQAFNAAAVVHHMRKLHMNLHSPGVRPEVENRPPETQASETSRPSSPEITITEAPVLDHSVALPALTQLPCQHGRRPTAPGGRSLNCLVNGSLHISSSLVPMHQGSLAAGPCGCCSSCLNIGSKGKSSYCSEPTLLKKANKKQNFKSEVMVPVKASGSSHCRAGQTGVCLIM

[16] = biological target: Histamine H1 receptor (Homo sapiens) (UniProt P35367); conditions: Compound concentration 10.0 uM
[17] = biological target: Serine/threonine-protein kinase PknB (Mycobacterium tuberculosis) (UniProt P9WI81); conditions: Compound concentration 1000.0 nM
[18] = tested on: Receptor-type tyrosine-protein kinase FLT3 (Homo sapiens), P36888 [R834Q]; conditions: Compound concentration 1000.0 nM
[19] = biological target: Serine/threonine-protein kinase 17B (Homo sapiens) (UniProt O94768); conditions: Compound concentration 1000.0 nM
[20] = biological target: Inhibitor of nuclear factor kappa-B kinase subunit alpha (Homo sapiens) (UniProt O15111); conditions: Compound concentration 1000.0 nM
[21] = biological target: Calcium/calmodulin-dependent protein kinase type IV (Homo sapiens) (UniProt Q16566); conditions: Compound concentration 1000.0 nM
Sequence of Calcium/calmodulin-dependent protein kinase type IV (Homo sapiens) (Q16566 whole entry): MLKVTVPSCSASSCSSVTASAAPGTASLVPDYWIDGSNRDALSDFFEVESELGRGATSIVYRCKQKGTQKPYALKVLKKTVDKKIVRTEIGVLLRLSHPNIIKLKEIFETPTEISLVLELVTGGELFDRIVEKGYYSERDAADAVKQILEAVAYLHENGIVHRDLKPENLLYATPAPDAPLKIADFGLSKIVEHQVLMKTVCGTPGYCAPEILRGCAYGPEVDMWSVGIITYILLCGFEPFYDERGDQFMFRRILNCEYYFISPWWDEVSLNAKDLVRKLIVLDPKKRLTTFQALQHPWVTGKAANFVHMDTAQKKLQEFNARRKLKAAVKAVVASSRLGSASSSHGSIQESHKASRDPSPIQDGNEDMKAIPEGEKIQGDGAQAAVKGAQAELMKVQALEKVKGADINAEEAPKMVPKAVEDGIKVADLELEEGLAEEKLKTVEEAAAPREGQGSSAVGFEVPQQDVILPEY

[22] = biological target: Muscarinic acetylcholine receptor M4 (Homo sapiens) (UniProt P08173); conditions: Compound concentration 10.0 uM
[23] = biological target: Casein kinase I isoform gamma-1 (Homo sapiens) (UniProt Q9HCP0); conditions: Compound concentration 1000.0 nM
Sequence of Casein kinase I isoform gamma-1 (Homo sapiens) (Q9HCP0 whole entry, looked up, canonical isoform): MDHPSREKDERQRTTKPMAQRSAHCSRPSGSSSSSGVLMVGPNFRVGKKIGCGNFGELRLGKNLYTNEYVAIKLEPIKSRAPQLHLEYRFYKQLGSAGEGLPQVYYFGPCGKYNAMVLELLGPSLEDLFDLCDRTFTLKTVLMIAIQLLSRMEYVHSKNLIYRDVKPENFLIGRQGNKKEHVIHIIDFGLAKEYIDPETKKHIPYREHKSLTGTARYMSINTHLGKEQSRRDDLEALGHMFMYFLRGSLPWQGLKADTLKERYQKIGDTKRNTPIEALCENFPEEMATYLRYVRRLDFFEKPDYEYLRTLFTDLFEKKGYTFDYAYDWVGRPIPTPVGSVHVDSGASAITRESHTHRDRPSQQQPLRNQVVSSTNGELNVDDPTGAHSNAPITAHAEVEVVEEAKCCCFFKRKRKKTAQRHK

[24] = biological target: Histamine H3 receptor (Homo sapiens) (UniProt Q9Y5N1); conditions: Compound concentration 10.0 uM
[25] = biological target: Tyrosine-protein kinase JAK1 (Homo sapiens) (UniProt P23458); conditions: Compound concentration 1000.0 nM
[26] = biological target: cAMP-dependent protein kinase catalytic subunit beta (Homo sapiens) (UniProt P22694); conditions: Compound concentration 1000.0 nM
[27] = biological target: Tyrosine-protein kinase Yes (Homo sapiens) (UniProt P07947); conditions: Compound concentration 1000.0 nM
[28] = biological target: Serine/threonine-protein kinase PLK3 (Homo sapiens) (UniProt Q9H4B4); conditions: Compound concentration 1000.0 nM
[29] = biological target: SNF-related serine/threonine-protein kinase (Homo sapiens) (UniProt Q9NRH2); conditions: Compound concentration 1000.0 nM
[30] = tested on: Epidermal growth factor receptor (Homo sapiens), P00533 [L858R]; conditions: Compound concentration 1000.0 nM
[31] = biological target: Serine/threonine-protein kinase TAO3 (Homo sapiens) (UniProt Q9H2K8); conditions: Compound concentration 1000.0 nM
Sequence of Serine/threonine-protein kinase TAO3 (Homo sapiens) (Q9H2K8 whole entry): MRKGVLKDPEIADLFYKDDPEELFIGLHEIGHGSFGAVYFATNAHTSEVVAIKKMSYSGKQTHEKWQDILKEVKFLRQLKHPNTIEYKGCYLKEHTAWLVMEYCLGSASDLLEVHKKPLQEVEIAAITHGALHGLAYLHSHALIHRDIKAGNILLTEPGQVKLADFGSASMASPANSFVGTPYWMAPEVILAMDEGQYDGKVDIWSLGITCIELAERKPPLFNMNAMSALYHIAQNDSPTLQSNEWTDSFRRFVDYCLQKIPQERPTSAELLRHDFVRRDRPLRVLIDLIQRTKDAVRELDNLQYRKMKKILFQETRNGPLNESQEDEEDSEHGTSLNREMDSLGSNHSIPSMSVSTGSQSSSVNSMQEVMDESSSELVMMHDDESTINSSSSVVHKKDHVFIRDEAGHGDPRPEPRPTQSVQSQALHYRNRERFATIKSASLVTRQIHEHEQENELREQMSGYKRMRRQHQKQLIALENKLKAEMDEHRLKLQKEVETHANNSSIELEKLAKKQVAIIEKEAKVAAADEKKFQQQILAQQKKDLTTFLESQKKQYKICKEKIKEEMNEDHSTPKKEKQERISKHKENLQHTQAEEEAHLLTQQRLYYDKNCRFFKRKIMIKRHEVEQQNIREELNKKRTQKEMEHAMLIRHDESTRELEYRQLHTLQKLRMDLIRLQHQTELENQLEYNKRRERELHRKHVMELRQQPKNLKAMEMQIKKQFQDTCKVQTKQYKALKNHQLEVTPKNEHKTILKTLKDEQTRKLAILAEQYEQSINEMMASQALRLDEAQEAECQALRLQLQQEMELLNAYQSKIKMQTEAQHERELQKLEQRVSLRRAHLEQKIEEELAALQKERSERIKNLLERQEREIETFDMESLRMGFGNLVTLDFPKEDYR

[32] = biological target: 5'-AMP-activated protein kinase catalytic subunit alpha-1 (Homo sapiens) (UniProt Q13131); conditions: Compound concentration 1000.0 nM
[33] = biological target: Casein kinase I isoform gamma-2 (Homo sapiens) (UniProt P78368); conditions: Compound concentration 1000.0 nM
Sequence of Casein kinase I isoform gamma-2 (Homo sapiens) (P78368 whole entry, looked up, canonical isoform): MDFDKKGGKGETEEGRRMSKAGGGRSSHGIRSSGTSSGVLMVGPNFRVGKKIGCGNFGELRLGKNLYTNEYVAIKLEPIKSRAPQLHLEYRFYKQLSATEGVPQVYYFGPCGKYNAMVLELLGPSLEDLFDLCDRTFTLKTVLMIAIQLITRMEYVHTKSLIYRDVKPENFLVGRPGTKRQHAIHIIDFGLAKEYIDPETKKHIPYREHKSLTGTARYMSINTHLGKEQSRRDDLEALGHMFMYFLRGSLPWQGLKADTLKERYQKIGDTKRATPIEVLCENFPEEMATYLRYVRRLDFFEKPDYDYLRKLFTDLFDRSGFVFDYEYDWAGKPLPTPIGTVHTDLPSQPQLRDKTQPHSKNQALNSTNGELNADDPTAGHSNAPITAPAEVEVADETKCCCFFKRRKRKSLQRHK

[34] = biological target: Calcium/calmodulin-dependent protein kinase type II subunit delta (Homo sapiens) (UniProt Q13557); conditions: Compound concentration 1000.0 nM
[35] = biological target: Serine/threonine-protein kinase MAK (Homo sapiens) (UniProt P20794); conditions: Compound concentration 1000.0 nM
Sequence of Serine/threonine-protein kinase MAK (Homo sapiens) (P20794 whole entry): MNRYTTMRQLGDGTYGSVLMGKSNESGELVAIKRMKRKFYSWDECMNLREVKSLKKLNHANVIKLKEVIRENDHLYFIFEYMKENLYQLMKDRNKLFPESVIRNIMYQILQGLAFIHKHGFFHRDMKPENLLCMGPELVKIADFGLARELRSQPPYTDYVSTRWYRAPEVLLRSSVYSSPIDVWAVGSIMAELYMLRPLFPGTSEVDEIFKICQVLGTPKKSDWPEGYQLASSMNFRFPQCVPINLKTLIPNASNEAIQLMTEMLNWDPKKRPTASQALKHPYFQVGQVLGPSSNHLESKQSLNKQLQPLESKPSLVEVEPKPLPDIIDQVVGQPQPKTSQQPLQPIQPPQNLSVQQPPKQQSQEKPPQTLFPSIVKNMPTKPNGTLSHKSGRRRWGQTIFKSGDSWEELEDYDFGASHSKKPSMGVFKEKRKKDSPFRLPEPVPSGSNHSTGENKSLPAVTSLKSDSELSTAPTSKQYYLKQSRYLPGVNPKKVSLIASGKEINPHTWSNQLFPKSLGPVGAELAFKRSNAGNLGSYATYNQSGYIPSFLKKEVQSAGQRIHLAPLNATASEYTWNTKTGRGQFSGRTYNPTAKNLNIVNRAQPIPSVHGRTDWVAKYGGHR

[36] = biological target: Receptor-interacting serine/threonine-protein kinase 2 (Homo sapiens) (UniProt O43353); conditions: Compound concentration 1000.0 nM
[37] = biological target: Serine/threonine-protein kinase Nek2 (Homo sapiens) (UniProt P51955); conditions: Compound concentration 1000.0 nM
Sequence of Serine/threonine-protein kinase Nek2 (Homo sapiens) (P51955 whole entry): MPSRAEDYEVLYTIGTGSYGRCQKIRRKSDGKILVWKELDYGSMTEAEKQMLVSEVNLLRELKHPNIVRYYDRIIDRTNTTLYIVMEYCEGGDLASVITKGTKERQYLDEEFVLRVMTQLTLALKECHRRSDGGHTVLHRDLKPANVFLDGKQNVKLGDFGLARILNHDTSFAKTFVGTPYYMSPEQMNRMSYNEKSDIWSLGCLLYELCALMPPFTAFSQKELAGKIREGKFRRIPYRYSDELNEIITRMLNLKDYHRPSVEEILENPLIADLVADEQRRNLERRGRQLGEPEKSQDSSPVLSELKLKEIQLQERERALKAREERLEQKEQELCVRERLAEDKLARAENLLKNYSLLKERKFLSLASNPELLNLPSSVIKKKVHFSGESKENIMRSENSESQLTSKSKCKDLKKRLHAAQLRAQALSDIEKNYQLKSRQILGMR

[38] = biological target: Tyrosine-protein kinase Fgr (Homo sapiens) (UniProt P09769); conditions: Compound concentration 1000.0 nM
[39] = biological target: Serine/threonine-protein kinase NIM1 (Homo sapiens) (UniProt Q8IY84); conditions: Compound concentration 1000.0 nM
[40] = biological target: Cyclin-dependent kinase 16 (Homo sapiens) (UniProt Q00536); conditions: Compound concentration 1000.0 nM
[41] = biological target: Discoidin domain-containing receptor 2 (Homo sapiens) (UniProt Q16832); conditions: Compound concentration 1000.0 nM
[42] = biological target: BDNF/NT-3 growth factors receptor (Homo sapiens) (UniProt Q16620); conditions: Compound concentration 1000.0 nM
[43] = biological target: Platelet-derived growth factor receptor beta (Homo sapiens) (UniProt P09619); conditions: Compound concentration 1000.0 nM
[44] = tested on: Epidermal growth factor receptor (Homo sapiens), P00533 [T790M]; conditions: Compound concentration 1000.0 nM
[45] = biological target: Myosin light chain kinase 2, skeletal/cardiac muscle (Homo sapiens) (UniProt Q9H1R3); conditions: Compound concentration 1000.0 nM

Sequence of Serine/threonine-protein kinase DCLK2 (Homo sapiens) (Q8N568 whole entry): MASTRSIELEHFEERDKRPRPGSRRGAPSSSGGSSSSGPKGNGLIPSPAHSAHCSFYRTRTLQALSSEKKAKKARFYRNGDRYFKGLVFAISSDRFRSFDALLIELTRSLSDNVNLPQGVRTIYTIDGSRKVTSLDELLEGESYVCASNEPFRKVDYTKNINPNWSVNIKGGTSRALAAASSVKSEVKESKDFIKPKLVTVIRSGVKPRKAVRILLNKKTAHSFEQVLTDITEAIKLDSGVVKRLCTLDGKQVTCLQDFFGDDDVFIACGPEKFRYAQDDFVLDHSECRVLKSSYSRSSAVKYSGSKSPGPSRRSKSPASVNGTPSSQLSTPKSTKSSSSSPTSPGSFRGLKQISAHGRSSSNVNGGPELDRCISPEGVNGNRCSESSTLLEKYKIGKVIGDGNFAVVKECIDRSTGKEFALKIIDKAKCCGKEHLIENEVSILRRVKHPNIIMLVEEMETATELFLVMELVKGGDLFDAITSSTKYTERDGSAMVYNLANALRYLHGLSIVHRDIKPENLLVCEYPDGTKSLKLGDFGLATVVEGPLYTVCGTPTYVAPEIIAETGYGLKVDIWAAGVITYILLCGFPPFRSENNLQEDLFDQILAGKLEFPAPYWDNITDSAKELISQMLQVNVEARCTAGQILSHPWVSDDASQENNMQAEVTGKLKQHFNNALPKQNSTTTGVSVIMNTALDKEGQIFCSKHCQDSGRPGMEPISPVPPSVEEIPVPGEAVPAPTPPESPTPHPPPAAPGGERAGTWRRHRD

Q: For `O=C(Nc1cccnn1)N1CC(C/C=C/c2cncc(Oc3ccc(C(F)(F)F)cn3)n2)C1`, which residual activity [1] is on record?
A: The residual activity was 100%.

Q: And the residual activity [2]?
A: Its residual activity is 100%.

Q: What about the residual activity [3] of the same compound?
A: Its residual activity is 79%.

Q: What about the residual activity [4] of the same compound?
A: The residual activity was 100%.

Q: And the residual activity [5]?
A: The residual activity was 76%.

Q: And the residual activity [6]?
A: The residual activity was 100%.

Q: And the residual activity [7]?
A: Its residual activity is 100%.

Q: And the residual activity [8]?
A: The residual activity was 62%.

Q: And the residual activity [9]?
A: Its residual activity is 60%.

Q: And the residual activity [10]?
A: The residual activity was 100%.

Q: And the residual activity [11]?
A: Its residual activity is 95%.

Q: What about the residual activity [12] of the same compound?
A: Its residual activity is 58%.

Q: And the residual activity [13]?
A: The residual activity was 100%.

Q: And the residual activity [14]?
A: Its residual activity is 100%.

Q: And the residual activity [15]?
A: The residual activity was 100%.

Q: What about the inhibition [16] of the same compound?
A: Its inhibition is 30.9%.

Q: What about the residual activity [17] of the same compound?
A: Its residual activity is 87%.

Q: And the residual activity [18]?
A: The residual activity was 66%.

Q: And the residual activity [19]?
A: Its residual activity is 100%.

Q: And the residual activity [20]?
A: Its residual activity is 69%.

Q: And the residual activity [21]?
A: The residual activity was 100%.

Q: And the inhibition [22]?
A: Its inhibition is -7.53%.

Q: And the residual activity [23]?
A: Its residual activity is 100%.

Q: What about the inhibition [24] of the same compound?
A: Its inhibition is 17.3%.

Q: What about the residual activity [25] of the same compound?
A: Its residual activity is 100%.

Q: What about the residual activity [26] of the same compound?
A: The residual activity was 100%.

Q: And the residual activity [27]?
A: Its residual activity is 100%.

Q: And the residual activity [28]?
A: The residual activity was 80%.

Q: And the residual activity [29]?
A: Its residual activity is 100%.

Q: What about the residual activity [30] of the same compound?
A: The residual activity was 97%.

Q: And the residual activity [31]?
A: Its residual activity is 82%.

Q: And the residual activity [32]?
A: Its residual activity is 100%.

Q: What about the residual activity [33] of the same compound?
A: Its residual activity is 100%.

Q: What about the residual activity [34] of the same compound?
A: The residual activity was 100%.

Q: What about the residual activity [35] of the same compound?
A: The residual activity was 100%.

Q: What about the residual activity [36] of the same compound?
A: The residual activity was 93%.

Q: And the residual activity [37]?
A: Its residual activity is 100%.

Q: And the residual activity [38]?
A: Its residual activity is 100%.

Q: And the residual activity [39]?
A: The residual activity was 76%.

Q: And the residual activity [40]?
A: The residual activity was 81%.

Q: And the residual activity [41]?
A: Its residual activity is 80%.

Q: And the residual activity [42]?
A: Its residual activity is 77%.

Q: And the residual activity [43]?
A: The residual activity was 81%.

Q: What about the residual activity [44] of the same compound?
A: Its residual activity is 100%.

Q: And the residual activity [45]?
A: Its residual activity is 87%.

Q: What does the source list for `O=C(Nc1cccnn1)N1CCC(=Cc2cccc(Oc3ccc(C(F)(F)F)cn3)c2)CC1`?
A: residual activity [1]: 86%; residual activity [2]: 81%; residual activity [3]: 88%; residual activity [4]: 100%; residual activity [5]: 100%; residual activity [6]: 100%; residual activity [7]: 78%; residual activity [8]: 69%; residual activity [9]: 100%; residual activity [10]: 100%; residual activity [11]: 100%; residual activity [12]: 100%; residual activity [13]: 77%; residual activity [14]: 94%; residual activity [15]: 95%; inhibition [16]: 27.2%; residual activity [17]: 95%; residual activity [18]: 100%; residual activity [19]: 100%; residual activity [20]: 93%; residual activity [21]: 63%; inhibition [22]: 7.38%; residual activity [23]: 100%; inhibition [24]: 8.73%; residual activity [25]: 97%; residual activity [26]: 100%; residual activity [27]: 100%; residual activity [28]: 100%; residual activity [29]: 100%; residual activity [30]: 100%; residual activity [31]: 42%; residual activity [32]: 88%; residual activity [33]: 92%; residual activity [34]: 82%; residual activity [35]: 100%; residual activity [36]: 94%; residual activity [37]: 100%; residual activity [38]: 63%; residual activity [39]: 100%; residual activity [40]: 100%; residual activity [41]: 100%; residual activity [42]: 100%; residual activity [43]: 97%; residual activity [44]: 100%; residual activity [45]: 88%
